Reference: ChEMBL document CHEMBL3616373, “Identification of N-sulfonyl-tetrahydroquinolines as RORc inverse agonists” (Bioorg Med Chem Lett, 2015)
Calls of active or inactive are those of the source. The calls are words filed in the database; no cut-off is given here.

Tests used:
[1] = molecular target: T1, Nuclear receptor subfamily 1 group I member 2 (Homo sapiens, UniProt O75469); assay: Antagonist activity at GAL4-fused human PXR expressed in HEK293 cells assessed as inhibition of T0901317-stimulated transcriptional activity after 20 hrs by dual-glo luciferase reporter gene assay; type: cell-based
T1 sequence (O75469 whole entry): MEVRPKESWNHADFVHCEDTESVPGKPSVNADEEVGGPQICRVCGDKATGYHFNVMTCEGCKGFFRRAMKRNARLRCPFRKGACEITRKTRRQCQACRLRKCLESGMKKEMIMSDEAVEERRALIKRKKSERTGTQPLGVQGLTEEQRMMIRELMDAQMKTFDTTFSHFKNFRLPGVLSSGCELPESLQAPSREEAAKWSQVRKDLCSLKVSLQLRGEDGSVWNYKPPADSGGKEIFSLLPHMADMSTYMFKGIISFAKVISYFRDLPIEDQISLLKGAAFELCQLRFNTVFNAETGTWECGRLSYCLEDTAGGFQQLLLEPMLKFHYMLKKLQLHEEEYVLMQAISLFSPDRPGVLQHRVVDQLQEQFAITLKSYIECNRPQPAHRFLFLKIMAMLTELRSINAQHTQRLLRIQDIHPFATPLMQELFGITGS

[2] = Apparent permeability across basolateral to apical side in MDCK cells at 100 uM after 60 mins by HPLC analysis; type: ADME, cell-based, Canis lupus familiaris; details: dog
[3] = molecular target: T2, Oxysterols receptor LXR-beta (Homo sapiens, UniProt P55055); assay: Antagonist activity at GAL4-fused human LXRbeta expressed in HEK293 cells assessed as inhibition of T0901317-stimulated transcriptional activity after 20 hrs by dual-glo luciferase reporter gene assay; type: cell-based
T2 sequence (P55055 whole entry): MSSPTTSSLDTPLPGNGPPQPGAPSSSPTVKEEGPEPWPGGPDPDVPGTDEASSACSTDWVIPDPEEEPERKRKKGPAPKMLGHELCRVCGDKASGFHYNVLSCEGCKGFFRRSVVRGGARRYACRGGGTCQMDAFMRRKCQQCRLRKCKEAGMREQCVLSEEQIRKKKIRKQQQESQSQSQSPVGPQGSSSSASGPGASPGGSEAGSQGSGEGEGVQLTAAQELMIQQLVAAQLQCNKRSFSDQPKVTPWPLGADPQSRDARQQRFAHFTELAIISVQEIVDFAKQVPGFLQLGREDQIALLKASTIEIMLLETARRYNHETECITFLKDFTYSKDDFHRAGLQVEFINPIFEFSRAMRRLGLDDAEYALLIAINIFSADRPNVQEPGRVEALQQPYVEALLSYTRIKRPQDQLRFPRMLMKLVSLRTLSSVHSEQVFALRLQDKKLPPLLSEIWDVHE

[4] = molecular target: T3, Bile acid receptor (Homo sapiens, UniProt Q96RI1); assay: Antagonist activity at GAL4-fused human FXR expressed in HEK293 cells assessed as inhibition of T0901317-stimulated transcriptional activity after 20 hrs by dual-glo luciferase reporter gene assay; type: cell-based
T3 sequence (Q96RI1 whole entry): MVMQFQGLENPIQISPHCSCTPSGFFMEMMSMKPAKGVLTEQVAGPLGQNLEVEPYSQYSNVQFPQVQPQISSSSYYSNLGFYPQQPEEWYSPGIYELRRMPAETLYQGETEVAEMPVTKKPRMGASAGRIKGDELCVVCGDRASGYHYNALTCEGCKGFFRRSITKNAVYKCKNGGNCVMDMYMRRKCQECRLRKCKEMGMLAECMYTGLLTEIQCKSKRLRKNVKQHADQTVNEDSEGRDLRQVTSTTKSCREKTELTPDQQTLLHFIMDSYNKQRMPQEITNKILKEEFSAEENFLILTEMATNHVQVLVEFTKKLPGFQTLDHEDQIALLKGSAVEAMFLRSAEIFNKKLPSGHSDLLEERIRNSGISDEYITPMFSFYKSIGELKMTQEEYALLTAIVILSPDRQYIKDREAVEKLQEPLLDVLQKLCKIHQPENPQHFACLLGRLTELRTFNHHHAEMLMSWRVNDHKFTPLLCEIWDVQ

[5] = Plasma protein binding in human at 5 uM after 4 hrs by equilibrium dialysis method; type: ADME, cell-free; details: read-out: PPB
[6] = molecular target: T4, Nuclear receptor ROR-gamma (Homo sapiens) (UniProt P51449); assay: Inverse agonist activity at N-terminal 6xHis-tagged human RORc ligand binding domain (241 to 486) expressed in bacterial expression system assessed as inhibition of SRC1 co-activator peptide recruitment after 3 hrs by TR-FRET analysis relative to apo-RORc ligand binding domain
T4 sequence (whole entry): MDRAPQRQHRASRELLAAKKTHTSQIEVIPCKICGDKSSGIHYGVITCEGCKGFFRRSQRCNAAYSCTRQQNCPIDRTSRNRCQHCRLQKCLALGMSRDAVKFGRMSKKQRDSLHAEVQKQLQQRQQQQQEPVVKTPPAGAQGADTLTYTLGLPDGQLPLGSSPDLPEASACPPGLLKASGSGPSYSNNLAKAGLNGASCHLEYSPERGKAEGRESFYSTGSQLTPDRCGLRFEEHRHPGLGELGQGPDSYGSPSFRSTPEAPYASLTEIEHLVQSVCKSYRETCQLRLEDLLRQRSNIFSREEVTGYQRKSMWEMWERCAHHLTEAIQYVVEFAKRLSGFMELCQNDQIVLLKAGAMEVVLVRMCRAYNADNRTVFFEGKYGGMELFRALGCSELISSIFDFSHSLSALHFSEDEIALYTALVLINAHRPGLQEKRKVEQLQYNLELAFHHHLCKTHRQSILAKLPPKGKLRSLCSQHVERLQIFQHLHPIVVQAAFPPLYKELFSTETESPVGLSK

[7] = molecular target: T5, Bile acid receptor (Homo sapiens) (UniProt Q96RI1); assay: Agonist activity at GAL4-fused human FXR expressed in HEK293 cells assessed as activation of basal transcriptional activity up to 10 uM after 20 hrs by dual-glo luciferase reporter gene assay; type: cell-based
T5 sequence (whole entry): T3 sequence (Q96RI1 whole entry)

[8] = molecular target: T1, Nuclear receptor subfamily 1 group I member 2; assay: Agonist activity at GAL4-fused human PXR expressed in HEK293 cells assessed as activation of basal transcriptional activity up to 10 uM after 20 hrs by dual-glo luciferase reporter gene assay; type: cell-based; details: hek293, 20 h

EC50 [1] [µM] | Papp B→A at 1 h, 100 µM [2] [×10⁻⁶ cm/s] | EC50 [3] [µM] | EC50 [4] [µM] | fraction unbound at 4 h, 5 µM [5] | Efficacy [6] [%] | Activity [7] | Activity [8] | Structure (SMILES)
0.82 | 12 | 2.6 | 5.3 | < 0.01 | -89 | inactive | Not Active | O=C(Nc1ccc2c(c1)N(S(=O)(=O)c1ccc(F)cc1)CCC2)c1c(F)cccc1Cl
0.94 | 15 | 3.8 | 5.9 | < 0.01 | -89 | inactive | Not Active | O=C(Nc1ccc2c(c1)N(S(=O)(=O)c1ccc(F)cc1)CCC2)c1ccccc1Cl
4.8 | 11 | 5.7 | 4.2 | < 0.01 | -99 | inactive | Not Active | O=C(Nc1ccc2c(c1)N(S(=O)(=O)c1ccc(F)cc1)CC2)c1c(F)cccc1F
1.1 | 14 | 3.2 | 7.6 | < 0.01 | -99 | inactive | Not Active | O=C(Nc1ccc2c(c1)N(S(=O)(=O)c1ccc(F)cc1)CCC2)c1c(F)cccc1F
